Assay results: paper PMC12692346, “Imidazolinium-Based NHC–Metal Complexes Overcome Both Cancer Multidrug Resistance and Cisplatin Resistance In Vitro” (International Journal of Molecular Sciences, 2025)

Key:
[1] = test system: MSCL-1 mesenchymal stem cell-like cell line; assay: PrestoBlue cytotoxicity test, non-malignant MSCL-1; format: cell-based, human; conditions: for IC50: 72 h treatment, PrestoBlue; for MSCL-1 / CST ratio (IC50_MSCL-1/IC50_cancer line): MSCL-1 vs CST; for MSCL-1 / Mes-Sa ratio (IC50_MSCL-1/IC50_cancer line): MSCL-1 vs Mes-Sa
Protocol: The MSCL-1 line was seeded on 96-well plates with 15,000 cells/well density, and the following day, it was treated with the compounds for 72 h, when cell viability was assessed using a PrestoBlue viability assay.
(§1) pIC50 values derived from both co- and monoculture systems were determined by a custom program written in C# [25], then average and standard deviations were calculated and transformed to IC50 values. Every compound was tested in at least 3 independent experiments in triplicates.

Mes-Sa/Dx5 eGFP = assay: Triple coculture fluorescence cytotoxicity test, doxorubicin-selected MDR line; format: cell-based, human; conditions: for RR_Dx5 resistance ratio (IC50_MDR line / IC50_parental line) of Mes-Sa/Dx5: Mes-Sa/Dx5 vs Mes-Sa; for IC50: triple coculture, 144 h incubation, fluorescence readout
Protocol: (§2) All synthesized complexes and representatives of the respective ligands (Lb, Lc, SIPr, IPr) were tested in a triple coculture of uterine sarcoma cell lines, consisting of the parental Mes-Sa cell line, and its MDR derivatives Mes-Sa/B1 and Mes-Sa/Dx5, transfected or selected in doxorubicin to overexpress P-glycoprotein, respectively (Figure 2a–c, Table S2). Each cell line expresses a distinct fluorescent protein (mCherry, mOrange, and eGFP, respectively), and the total fluorescence of a well is proportional to the cell number, allowing the assessment of compound cytotoxicity.
(§3) In a triple coculture system, cell lines expressing different fluorescent proteins were seeded in the same well. Cell lines (Mes-Sa mCherry, Mes-Sa/B1 mOrange, Mes-Sa/Dx5 eGFP [25]) were admixed and seeded on 384-well plates at a density of 3 × 800 cells/well (1:1:1 ratio), resulting in an overall total of 2400 cells. The next day, serially diluted compounds were added to the wells. Liquid handling was managed by a Hamilton StarLet pipetting robot. After 144 h of incubation, the fluorescence of mCherry (ex/em: 585/610 nm), mOrange (ex/em: 545/567 nm) and eGFP (ex/em: 485/510 nm) was recorded with an EnSpire plate reader (PerkinElmer, Waltham, MA, USA).
as §1

[2] = test system: CST-2/3 cisplatin-resistant cells; assay: Monoculture PrestoBlue cytotoxicity test, cisplatin-resistant CST-2/3; format: cell-based, mouse; conditions: for RR_CST resistance ratio (IC50_CST-2/3 / IC50_CST): CST-2/3 vs CST; for IC50: monoculture, 120 h exposure, PrestoBlue
Protocol: (§4) CST, a drug-naïve murine breast cancer cell line, and cisplatin-resistant cells CST-2/3 were seeded in monoculture into 384-well plates (Corning Inc., Corning, NY, USA) at a density of 2500 cells per well using automated liquid-handling. The cells were preincubated for 24 h to ensure adherence, followed by the addition of serially diluted compounds to a final well volume of 60 µL. Following 120 h of continuous drug exposure, cell viability was quantified using the PrestoBlue viability assay (Thermo Fisher Scientific, Waltham, MA, USA) after 1 h incubation at 555 nm excitation and 585 nm emission wavelengths.
as §1

[3] = test system: Mes-Sa mCherry uterine sarcoma cell line; assay: Triple coculture fluorescence cytotoxicity test, parental line; format: cell-based, human; conditions: 144 h incubation, fluorescence readout
Protocol: as §2, §3, §1

Mes-Sa/B1 mOrange = assay: Triple coculture fluorescence cytotoxicity test, ABCB1-transfected MDR line; format: cell-based, human; conditions: for RR_B1 resistance ratio (IC50_MDR line / IC50_parental line) of Mes-Sa/B1: Mes-Sa/B1 vs Mes-Sa; for IC50: triple coculture, 144 h incubation, fluorescence readout
Protocol: as §2, §3, §1

[4] = test system: CST murine breast cancer cell line; assay: Monoculture PrestoBlue cytotoxicity test, CST; format: cell-based, mouse; conditions: 120 h exposure
Protocol: as §4, §1

CST cells = assay: H2DCFDA intracellular ROS assay in CST; format: cell-based, mouse; conditions: 25 µM, 4 h incubation; for increase in intracellular ROS: vs 0 h
Protocol: (§5) Intracellular ROS production was assessed by the H2DCFDA—Cellular ROS Assay Kit (ab113851, Abcam, Cambridge, UK) according to the manufacturer’s instructions. Briefly, 20,000 cells (Mes-Sa and CST) were seeded on 96-well plates 1 day prior to the experiment. The cells were washed and incubated with H2DCFDA solution for 45 min in the dark. Following an additional washing step, test compounds were added in complete, phenol red free medium (FluoroBrite™, Thermo Fisher Scientific), at a final concentration of 25 µM. Fluorescence of 2′,7′-dichlorofluorescein (DCF) was measured at 484 nm/535 nm excitation/emission wavelengths. Data were normalized to baseline (0 h) values and represent at least three independent experiments.

Mes-Sa cells = assay: H2DCFDA intracellular ROS assay in Mes-Sa; format: cell-based, human; conditions: 25 µM, 4 h incubation; for increase in intracellular ROS: vs 0 h
Protocol: as §5

SMILES	IC50 [1]	MSCL-1 / CST ratio (IC50_MSCL-1/IC50_cancer line) [1]	MSCL-1 / Mes-Sa ratio (IC50_MSCL-1/IC50_cancer line) [1]	RR_Dx5 resistance ratio (IC50_MDR line / IC50_parental line) of Mes-Sa/Dx5 (Mes-Sa/Dx5 eGFP)	IC50 (Mes-Sa/Dx5 eGFP)	RR_CST resistance ratio (IC50_CST-2/3 / IC50_CST) [2]	IC50 [2]	IC50 [3]	RR_B1 resistance ratio (IC50_MDR line / IC50_parental line) of Mes-Sa/B1 (Mes-Sa/B1 mOrange)	IC50 (Mes-Sa/B1 mOrange)	IC50 [4]	intracellular ROS induction compared to serum-containing medium (in words) (Mes-Sa cells)	also measured
N.N.[Cl][Pt][Cl] [Cisplatin]	17 µM	113.6	6.8	2.3	5.91 µM	5.5	0.82 µM	2.52 µM	0.8	2.13 µM	0.15 µM	–	–
CC(C)c1cccc(C(C)C)c1N1CCN(c2c(C(C)C)cccc2C(C)C)[C]1=[Cu+]=[C]1N(c2c(C(C)C)cccc2C(C)C)CCN1c1c(C(C)C)cccc1C(C)C.F[B-](F)(F)F [Compound 9a]	0.81 µM	7.3	11.2	14.3	1.04 µM	2.2	0.24 µM	0.072 µM	11.6	0.84 µM	0.11 µM	–	increase in intracellular ROS (CST cells): 61%; increase in intracellular ROS (Mes-Sa cells): 99%
C=C[CH2][Pd]([Cl])=[C]1N(c2c(C(C)C)cccc2C(C)C)CCN1c1c(C(C)C)cccc1C(C)C [Compound 8a]	2.98 µM	2.0	1.1	2.2	5.96 µM	1.3	2 µM	2.68 µM	2.0	5.25 µM	1.52 µM	–	–
CC(C)c1cccc(C(C)C)c1N1CCN(c2c(C(C)C)cccc2C(C)C)[C]1=[Cu][Cl] [Compound 5a]	1.15 µM	6.5	2.7	1.0	0.43 µM	1.5	0.27 µM	0.42 µM	1.0	0.44 µM	0.18 µM	–	increase in intracellular ROS (CST cells): 88%; increase in intracellular ROS (Mes-Sa cells): 72%
CC(C)c1cccc(C(C)C)c1N1C=[N+](c2c(C(C)C)cccc2C(C)C)CC1 [SIPr, reference compound]	–	2.0	2.3	20.9	–	3.4	–	–	10.9	–	–	did not significantly induce	IC50 ([1]; Homo sapiens): 11.7 µM; intracellular ROS induction compared to untreated control (in words) (CST cells): No significant ROS induction; IC50 (Mes-Sa/Dx5 eGFP; Homo sapiens, MES-SA/Dx5): 106 µM; IC50 ([2]; Mus musculus): 20.3 µM; IC50 ([3]; Homo sapiens, MES-SA): 5.05 µM; IC50 (Mes-Sa/B1 mOrange; Homo sapiens, MES-SA): 55 µM; IC50 ([4]; Mus musculus): 5.92 µM
C=C[CH2][Pd]([Cl])=[C]1N([C@H](C)c2ccccc2)C[C@H](C(C)(C)C)N1c1c(C(C)C)cccc1C(C)C [Compound 4c]	–	–	–	4.3	10.1 µM	1.2	1.35 µM	2.34 µM	2.4	5.62 µM	1.1 µM	–	–
CC(C)c1cccc(C(C)C)c1N1CCN(c2c(C(C)C)cccc2C(C)C)[C]1=[Ag][Cl] [Compound 6a]	1.24 µM	2.3	2.0	1.5	0.89 µM	1.7	0.88 µM	0.61 µM	1.6	0.98 µM	0.53 µM	did not significantly induce	increase in intracellular ROS (CST cells): 107%
CC(C)c1cccc(C(C)C)c1N1[C](=[Cu][Cl])N([C@@H](C)c2cccc3ccccc23)C[C@@H]1C(C)(C)C [Compound 1d]	–	–	–	3.4	1.74 µM	1.3	1.82 µM	0.51 µM	9.8	4.94 µM	1.38 µM	–	–
CC(C)c1cccc(C(C)C)c1N1[CH]([Cu][Cl])N([C@@H](C)c2ccccc2)C[C@@H]1C(C)(C)C (some centres unmarked) [Compound 1b]	–	–	–	1.3	2.32 µM	1.8	4.92 µM	1.74 µM	4.9	8.51 µM	2.81 µM	–	RR_Dx5 resistance ratio (IC50_MDR line / IC50_parental line) of Mes-Sa/Dx5 (Mes-Sa/Dx5 eGFP; listed as 1b*): 1.9; IC50 (Mes-Sa/Dx5 eGFP; listed as 1b*): 1.46 µM; IC50 ([3]; listed as 1b*): 0.75 µM; RR_B1 resistance ratio (IC50_MDR line / IC50_parental line) of Mes-Sa/B1 (Mes-Sa/B1 mOrange; listed as 1b*): 7.0; IC50 (Mes-Sa/B1 mOrange; listed as 1b*): 5.25 µM
CC(C)c1cccc(C(C)C)c1N1CCN(c2c(C(C)C)cccc2C(C)C)[C]1=[Ag+]=[C]1N(c2c(C(C)C)cccc2C(C)C)CCN1c1c(C(C)C)cccc1C(C)C.F[B-](F)(F)F [Compound 10a]	0.56 µM	6.1	15.7	162.2	5.79 µM	2.4	0.218 µM	0.036 µM	79.5	2.84 µM	0.092 µM	did not significantly induce	intracellular ROS induction compared to untreated control (in words) (CST cells): No significant ROS induction
CC(C)c1cccc(C(C)C)c1N1[C](=[Au][Cl])N([C@@H](C)c2cccc3ccccc23)C[C@@H]1C(C)(C)C [Compound 3d]	–	–	–	2.5	19.4 µM	1.4	8.38 µM	7.81 µM	2.8	21.9 µM	6.17 µM	–	–
CC(C)c1cccc(C(C)C)c1N1CCN(c2c(C(C)C)cccc2C(C)C)[C]1=[Au][Cl] [Compound 7a]	25.7 µM	2.1	3.0	2.2	18.5 µM	1.0	12.6 µM	8.45 µM	1.7	14.5 µM	12.2 µM	did not significantly induce	intracellular ROS induction compared to untreated control (in words) (CST cells): No significant ROS induction
